Experimental data taken from patent US20130039956A1, “USE OF NITROCARBOXYLIC ACIDS FOR THE TREATMENT, DIAGNOSIS AND PROPHYLAXIS OF AGGRESSIVE HEALING PATTERNS” (priority 2010, published 2013).

What was measured:
[1] = tested on: human umbellical endothelial cells (HUVEC); assay: Adhesion, propagation and growth of endothelial cells on coated polystyrene films; type: cell-based; conditions: days 3, 7, 14, compared with native FA; also: key: 0: not superior to native FA (control); +: Superior to native FA; ++: superior to both; +++: outstanding effect
Protocol: Polystyrene scaffolds were prepared and pretreated in the same manner as performed in example 1 by using the same nitrocarboxylic acids as listed in table 1. The film samples were placed in a culture dish containing a gel matrix, in which human umbellical endothelial cells (HUVEC) had been allowed to grow to confluence. The culture medium consisted of 5% FCS, which was replaced every 5 days. Cultivation was performed according to standard conditions. Films were evaluated at days 3, 7, and 14 after careful extraction from the culture dishes, rinsing with saline solution, and staining with methylene blue. Using a reflected light microscope, the films were immediately examined to evaluate the following: Propagation of cells to the film center, cell confluidity, multilayer formation, and cell shape.

[2] = tested on: Murine macrophage-like cells RAW 264.7 and murine L929 fibroblasts; assay: Monocyte/fibroblast co-culture on coated surgical suture material; type: cell-based; conditions: dip-coated suture material, 24 and 48 hours; compared with native FA; also: key: 0: not superior to native FA (control); +: Superior to native FA; ++: superior to both; +++: outstanding effect
Description: In order to determine immunoreactions to foreign material and its consequence on fibrogenesis, co-cultures of fibroblasts and monocytes were used. Commercially available suture materials (propylene, polyamide, and silk) were dip-coated with corresponding native and nitrated fatty acids. Untreated suture material served as control. Treated and untreated suture materials were out in small pieces and placed in a 96-well plate.
Murine macrophage-like cells RAW 264.7 and murine L929 fibroblasts were cultured to a population density of 5×10(5) each. Cell suspensions were merged achieving a cellularity of approximately 2.5×10(5) cell/ml of each cell population which were added to the wells. The suture material samples were fully covered by the suspension. Wells were continuously and gently shaken throughout the incubation period.
Supernatants were collected for assays after 24 and 48 hours and analyzed for profibrotic cytokines IL-13, IL-4, and IL-6, TGF-β1, collagen I.

Cardiomyocytes = assay: TGF-β1-inducible formation of extracellular matrix in cardiomyocytes under shear stress; type: cell-based; conditions: 10-100 μmol, shear stress up to 100 dyn/cm^2; compared with native FA; also: key: 0: not superior to native FA (control); +: Superior to native FA; ++: superior to both; +++: outstanding effect
Protocol: Characterizing features of the fibrous remodelling in the heart are accentuated expression and deposition of extracellular matrix proteins (ECM). This has been attributed to increased mechanical forces via autocrine release of transforming growth factor-beta (TGF-beta). […] An established cell culture model was used to investigate the effect of shear stress on cardiomyocytes. Cardiomyocytes were cultured and transferred to a matrigel substrate. Plates with confluenced cells were placed into a shear force injury device (SFID). The SFID design is based on a cone-and-plate construction which is a well-defined rheological model in which a homogenously distributed laminar flow over the surface of the cells is generated by a rotating cone. The conical surface is positioned above a stationary flat plate and the fluid medium between these two surfaces is set in motion by rotating the cone to create a uniform level of fluid shear stress throughout the entire surface of the cells cultured on the coverslips.
A peak shear stress of 100 dyn/cm^2 could be applied without significant cell detachment enabling a maximum injury severity of 46%. Cells were exposed to FCS 1% without or with nitro-fatty acid, and the corresponding native fatty acid in a dosage range between 10 μmol and 100 μmol, 10 seconds before shear force application. Shear force peaks up to 100 dyn/cm^2 with a duration of 30 msec each with a repetition frequency of 60/minute were applied for 5, 10, 30 and 60 minutes. Thereafter the cell plates were washed and placed in FCS 1% for 24 hrs. The supernatant of the shear force investigation as well as that of the following culture phase was analysed. It could be shown that TGF-beta and ECM proteins (collagen I, fibronectin, laminin, elastin) increased after treatment in the control groups.

human dermal fibroblasts = assay: Extra cellular matrix production (collagen-1) in response to TGF-β2 in dermal fibroblasts; type: cell-based; conditions: 10 and 50 μmol, TGF-β2 25 ng/ml, 48 hours; compared with native FA; also: key: 0: not superior to native FA (control); +: Superior to native FA; ++: superior to both; +++: outstanding effect
Protocol: In order to determine whether PPRA gamma stimulation due to nitrated fatty acids plays a role in the inventive inhibition of an aggressive healing pattern to an irritating stimulus, human dermal fibroblasts were investigated. A dominant-negative PPAR gamma mutant (L466A) cell clone was generated by polymerase chain reaction-based site-directed mutagenesis. Presence of PPAR gamma or absence was investigated using a PPAR gamma antibody reaction which was determined using an enhanced chemiluminescence detection system. Furthermore, one cell series was incubated with a selective irreversible PPAR gamma ligand (GW9662, 1 μmol), which effectively blocks PPAR gamma receptors.
Sequential cultivation of human dermal fibroblasts was performed in EMEM containing 5 mM glucose supplemented with 10% FCS under standard cultivation conditions. Cells were allowed to grow to confluence in a 96-well plate. Wild-type fibroblasts and PPAR gamma deficient fibroblasts were investigated by a set-up of 2×10 sample sets comprising: (1) blank control; (2) stimulation control; (3) preincubation with the PPAR gamma antagonist GW9662 (Cayman Chemical); (4) preincubation with the PPAR agonist troglitazone (25 μmol). In 2×4 sample sets, native fatty acids were added to the medium to achieve a final concentration of 10 and 50 μmol, respectively; in another 2×4 sets the nitrated fatty acids were added to the medium in the same concentration, while 2×2 sets served as controls. In 10 of the sets, TGF-β2 was added to the culture medium at a concentration of 25 ng/ml. Cultivation was continued for 48 hours and then processed in order to analyze collagen-1 as measured by enhanced chemiluminescence detection of immuncomplexes.

adult rats = assay: Fibrogenesis after traumatic and thermal tissue damage in dermal wound healing in vivo; set-up: species or system rat; conditions: 100 micromol ethanolic solution on wound margins, 8 weeks, compared with native FA
Description: In order to determine the effects of nitrated fatty acids on fibrogenesis in response to traumatic and thermal tissue damage, an in vivo rat model was investigated. Paravertebral scalpel incision (two on each side) of approximately 1 cm in length and a depth of 1 mm were made in 12 anesthetized adult rats (150-200 g) of either sex after disinfection. Bleeding was stopped by manual compression. The entire length of the wound margins of one incision at each side were additionally cauterized using a 3-mm ball electrode connected to a DRE ASG-120 electrosurgical generator. Wound margins of one side were then covered with a sterile ethanolic 0.9% saline solution, or with a sterile ethanolic solution of the fatty acids (100 micromol), or with a sterile ethanolic solution of the nitrated fatty acids (100 micromol) using a sterile brush. A 1×10 mm cotton string that was bathed in the ethanolic solution containing 0.9% saline, native fatty acid or nitrated fatty acids was placed upon the incision site that had been closed by manual adaptation. The adaptation result and the cotton strings were fixed by an adhesive film. The animals were housed and fed according to institutional standards. The wound films were carefully removed after 2 weeks. Animals were euthanized after 8 weeks. The skin wounds were harvested, including the epidermis, dermis, and subcutaneous loose tissue with the surrounding normal tissue. The removed tissues were fixed in formalin and then embedded in paraffin. The cutting plane was vertical to the longitudinal axis of the former incisions. Slices (4-6 μm) were stained with H&E and Masson trichrome staining to evaluate the amount and density of collagen.

[3] = tested on: Human peripheral blood mononuclear cells (PBMCs); assay: Adhesion of serum proteins and monocyte activation induced by coated silicone; type: cell-based; conditions: dip-coated silicone, PBMCs 3 days; compared with native FA
Protocol: In order to determine the effect of coating implant materials with nitro fatty acids to reduce adsorption of adhesion molecules and monocyte activation, sterile silicone sheets were out in small pieces and coated with respective nirocarboxylic acid and the corresponding native fatty acids by dip coating. Uncoated silicone pieces served as controls. For each fatty acid two sets of silicone pieces were bathed in freshly drawn human serum for 1 hour at 37° C., and another two sets were bathed in saline solutions. One set of both coated and uncoated pieces was analyzed immediately for adhesion proteins and the other set was placed in 96-well plates after rinsing the silicone pieces. Human peripheral blood mononuclear cells (PBMCs), isolated from three healthy subjects, were added to each well. Wells were incubated for 3 days under standard conditions. Culture supernatants were assayed for IL-1beta, IL-6, IL-8, and chemoattractant protein 1 (MCP-1) levels at the start and end of experiments.
Before analyzing the silicone pieces for protein adsorption, they were bathed in saline for 5 minutes. Thereafter, one side was rinsed with saline as performed for both sides in the set used for culturing. There was marked adsorption of fibrinogen and […] C5b-9 on the uncoated silicone. […] No protein was found on the surface of the nitro fatty acid-coated sample that was rinsed, thus, indicating the weak adherence of serum proteins.

[4] = tested on: Tracheas of adult Wistar rats; assay: Tissue damage due to barotrauma ex vivo (tracheal rings); type: cell-based; conditions: inhibitor 10 micromol, 6 hours before traumatization
Protocol: In order to determine the effects of nitrated fatty acids on mechanical trauma to tracheal cells, an ex vivo model was established. Tracheas of adult Wistar rats sacrificed with thiopental given intraabdominally were carefully resected (harvested). Whole (intact) tracheas were cultured in DMEM 10 (Sigma) supplemented with antibiotic/antimycotic drugs for 48 hours at 37° C. Tracheas were cut into five pieces of equal size. One piece was immediately analyzed, two were bathed in 0.9% saline, one was bathed in a solution containing native fatty acid in SDS (1%), and one was bathed in a solution containing nitro fatty acid, respectively, for 15 minutes each. The inner diameters of the tracheal rings were measured. A non-compliant balloon catheter for use in vascular interventions was chosen, so that the nominal balloon diameter was 15-20% larger than that of the trachea. One tracheal ring pretreated with 0.9% saline was left untreated; the other prepared tracheal rings were mounted on the balloon catheter, which was inflated to a pressure of 4 atm thereafter. Balloons were kept inflated for 4 hours, while being positioned in the culture medium. Thereafter, the tracheal rings were further cultivated in separate vials for 24 hours. In a separate set of investigations, sense/antisense ODNs for HO-1 (Invitrogen) directed against the translation initiation codon in the HO-1 cDNA was used to inhibit hemoxydase-1 synthesis. The cells were transfected using the Superfect transfection reagent (Qiagen) before traumatization. In another set of experiments, the HO inhibitor SnPP IX (Porphyrin Products, London, UK) was added to the culture medium 6 hours before traumatization at a dose of 10 micromol.
For analysis, the rings were cut into small strips using a no touch technique. Viability was tested using a MTT assay and apoptosis using a TUNEL assay. Anti-HO-1 antibodies (StressGen, Tebu, Le-Perray-en-Yvelines, France) were measured by Western blot and immunohistochemistry.

pericardial strips = assay: Cold induced injury in a whole tissue ex-vivo model (pericardium); type: cell-based, Wistar rats; conditions: control sample incubated with all-caspase inhibitor before cold
Description: To determine whether nitrated fatty acids can be used to preserve cells and tissues from cold or cryoinjury, an in vitro model utilizing murine epicardium was established. The experimental set-up should reduce the possibility of ischemia or reperfusion injury to a minimum, but at the same time allow differentiation of the contribution of ischemia/reperfusion injury-triggered cell death, which is known to occur almost exclusively via apoptosis, whereas cell death induced by cold injury almost exclusively results in necrosis.
The pericardial sac was carefully resected in 24 anesthetized Wistar rats (180-270 g) of either sex. Care was taken to grasp the pericardium with a forceps only at the cutting edges and reduce traumatization of the central portions of the pericardium to a minimum. After resection, the cutting edge and the former apex area of the pericardium were dissected, as to obtain flat tissue strips which were placed immediately in the culture medium (DMEM) containing 10% FCS and antibiotics (penicillin, streptomycin). Tissue samples were cultured in an oxygen atmosphere at 18° C. for 2 days. […] Then the pericardial strips were cut into 4 pieces of equal size. One piece was further cultivated at 37° C. without undergoing the cooling cycles, thus, serving as the control. In each of three investigations, one piece was bathed in a solution (0.9% saline and 1% SDS) containing 200 μmol nitro-fatty acid or contained 200 μmol of the corresponding native fatty acid, for 10 min at a temperature of 18° C. One piece of pericardium was bathed in a solution without fatty acids under otherwise identical conditions. All samples were cooled by continuously decreasing from ambient temperature at a rate of 3° C./min to a minimum temperature of […]. After 1 hour, the samples were rewarmed at a rate of 3° C./min by continuously increasing the temperature until a temperature of 18° C., was achieved. Thereafter an identical cooling and rewarming cycle was performed. After the second cooling cycle, the tissue pieces were further cultured in the culture medium for 1 day allowing continuous adaptation to an ambient temperature of 37° C. For analytical preparations the pericardial pieces were out and further processed. A direct TUNEL assay (Roche) was use for quantification of apoptosis, an annexin V/propidium iodide exclusion assay (Roche) was used to quantify the number of necrotic cells, and viability was determined by the WST-8 assay. Furthermore, the LDH release was quantified in the supernatants.
To rule out that cell death has been induced by ischemia or reperfusion (reoxygenation), in one series of experiments, a control sample was incubated with an all-caspase inhibitor (Q-VD-OPH, BioVision, USA) reconstituted in DMSO before the sample was exposed to cold.

CCCCCC=CCC=C(C/C=C\CCCCC(=O)O)[N+](=O)[O-] [compound 20, 9-nitro-cis-6,9,12-octadecatrienoic acid]
Relative differences: effect on adhesion, propagation and growth of endothelial cells [1]: 0 | Relative effect on profibrotic cytokines and collagen I on suture material [2]: 0 | Relative efficacy to suppress TGF-beta and ECM proteins in cardiomyocytes (Cardiomyocytes): + | Relative effect on collagen-1 production in response to TGF-β2 (human dermal fibroblasts): + | Relative effect on fibrogenesis (scar formation) in dermal wound healing (adult rats): + | Relative effect on serum protein adhesion and monocyte activation [3]: +

C=CC1=C(C)C2=Cc3c(C=C)c(C)c4[n]3[Sn]([Cl])([Cl])[n]3c(c(C)c(CCC(=O)O)c3=CC3=NC(=C4)C(C)=C3CCC(=O)O)=CC1=N2 [HO-1 inhibitor, reference compound]
HO-1 production [4]: reduced the HO-1 production to the lower detection limit or complete absence

CC(C)[C@H](NC(=O)c1ccc2ccccc2n1)C(=O)N[C@@H](CC(=O)O)C(=O)COc1c(F)cccc1F [Q-VD-OPH, reference compound]
rate of cells undergoing apoptosis (pericardial strips): within the range found in the cold-exposed control samples
